Activity calls are given as the source filed them.
Legend:
[1] = target: Glucose-6-phosphate 1-dehydrogenase (Homo sapiens, UniProt P11413); experiment: human G6PD enzyme inhibitors, dose response, selectivity assay for P. falciparum G6PD inhibitor project, biochemical, fluorescence (AID 504792); assay type: functional
[2] = target: T1, Polyadenylate-binding protein 1 (Homo sapiens, UniProt P11940); experiment: PABP1 MLLE–PAM2 interaction inhibitors, dose response, miRNA deadenylation inhibitor project, biochemical, fluorescence polarization, Cy5-PAM2 peptide, secondary (AID 602260); assay type: functional; conditions: read-out: IC50_Mean
T1 sequence (P11940 whole entry): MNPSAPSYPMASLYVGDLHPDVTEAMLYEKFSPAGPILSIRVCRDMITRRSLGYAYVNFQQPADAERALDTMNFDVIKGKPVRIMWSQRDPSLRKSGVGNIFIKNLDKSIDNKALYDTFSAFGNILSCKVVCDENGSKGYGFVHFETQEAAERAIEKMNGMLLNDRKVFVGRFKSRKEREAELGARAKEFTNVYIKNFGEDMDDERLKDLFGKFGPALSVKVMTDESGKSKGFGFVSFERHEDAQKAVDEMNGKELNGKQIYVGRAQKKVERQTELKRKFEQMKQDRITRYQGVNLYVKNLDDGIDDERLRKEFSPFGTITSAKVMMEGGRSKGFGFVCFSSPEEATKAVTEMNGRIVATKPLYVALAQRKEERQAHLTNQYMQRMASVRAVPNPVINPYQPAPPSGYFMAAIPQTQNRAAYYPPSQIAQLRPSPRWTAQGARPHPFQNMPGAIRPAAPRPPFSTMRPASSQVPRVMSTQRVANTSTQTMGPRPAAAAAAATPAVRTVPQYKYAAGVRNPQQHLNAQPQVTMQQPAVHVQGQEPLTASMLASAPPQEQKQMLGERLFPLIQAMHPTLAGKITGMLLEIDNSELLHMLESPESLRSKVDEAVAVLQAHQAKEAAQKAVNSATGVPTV

[3] = target: Mannose-6-phosphate isomerase (Homo sapiens, UniProt P34949); experiment: human PMI inhibitors, high substrate, primary screen, biochemical, fluorescence intensity, high mannose 6-phosphate (AID 1220)
SUMO-activating enzyme [4] = target: T2, SUMO-activating enzyme (Homo sapiens, UniProt Q9UBT2); experiment: inhibitors of in vitro SUMOylation cascade, primary screen, biochemical, HTRF, uHTS (AID 2006); assay type: protein-complex assay
T2 sequence (Q9UBE0 whole entry): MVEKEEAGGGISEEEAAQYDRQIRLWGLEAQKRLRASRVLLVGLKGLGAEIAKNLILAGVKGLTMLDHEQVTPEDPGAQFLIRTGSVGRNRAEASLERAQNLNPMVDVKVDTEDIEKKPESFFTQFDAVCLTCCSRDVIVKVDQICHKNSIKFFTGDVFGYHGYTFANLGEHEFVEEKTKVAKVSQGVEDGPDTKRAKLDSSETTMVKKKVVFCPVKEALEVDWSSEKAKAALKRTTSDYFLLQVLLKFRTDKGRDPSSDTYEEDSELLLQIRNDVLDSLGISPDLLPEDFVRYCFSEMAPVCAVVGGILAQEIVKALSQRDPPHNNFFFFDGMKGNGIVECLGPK
T2 sequence (Q9UBT2 whole entry): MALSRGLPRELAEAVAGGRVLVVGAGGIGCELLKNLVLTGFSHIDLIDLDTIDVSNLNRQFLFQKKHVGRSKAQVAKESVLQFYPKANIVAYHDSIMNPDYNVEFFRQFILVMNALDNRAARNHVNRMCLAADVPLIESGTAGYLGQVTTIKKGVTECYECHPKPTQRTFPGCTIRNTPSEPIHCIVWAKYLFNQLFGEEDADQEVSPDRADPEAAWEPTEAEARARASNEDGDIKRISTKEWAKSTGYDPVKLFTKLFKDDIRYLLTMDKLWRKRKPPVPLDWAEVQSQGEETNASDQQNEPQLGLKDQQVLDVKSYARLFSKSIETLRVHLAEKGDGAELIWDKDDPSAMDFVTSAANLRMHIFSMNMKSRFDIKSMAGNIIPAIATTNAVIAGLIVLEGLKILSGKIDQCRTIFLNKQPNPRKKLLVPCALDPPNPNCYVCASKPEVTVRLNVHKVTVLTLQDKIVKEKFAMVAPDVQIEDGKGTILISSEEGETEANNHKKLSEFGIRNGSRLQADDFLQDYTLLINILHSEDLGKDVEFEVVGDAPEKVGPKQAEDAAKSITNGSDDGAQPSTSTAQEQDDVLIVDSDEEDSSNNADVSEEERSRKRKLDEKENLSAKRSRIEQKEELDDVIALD

[5] = target: T3, Voltage-gated N-type calcium channel alpha-1B subunit/Amyloid beta A4 precursor protein-binding family A member 1 (Homo sapiens, UniProt Q00975+Q02410); assay type: protein assay
T3 sequence (Q00975 whole entry): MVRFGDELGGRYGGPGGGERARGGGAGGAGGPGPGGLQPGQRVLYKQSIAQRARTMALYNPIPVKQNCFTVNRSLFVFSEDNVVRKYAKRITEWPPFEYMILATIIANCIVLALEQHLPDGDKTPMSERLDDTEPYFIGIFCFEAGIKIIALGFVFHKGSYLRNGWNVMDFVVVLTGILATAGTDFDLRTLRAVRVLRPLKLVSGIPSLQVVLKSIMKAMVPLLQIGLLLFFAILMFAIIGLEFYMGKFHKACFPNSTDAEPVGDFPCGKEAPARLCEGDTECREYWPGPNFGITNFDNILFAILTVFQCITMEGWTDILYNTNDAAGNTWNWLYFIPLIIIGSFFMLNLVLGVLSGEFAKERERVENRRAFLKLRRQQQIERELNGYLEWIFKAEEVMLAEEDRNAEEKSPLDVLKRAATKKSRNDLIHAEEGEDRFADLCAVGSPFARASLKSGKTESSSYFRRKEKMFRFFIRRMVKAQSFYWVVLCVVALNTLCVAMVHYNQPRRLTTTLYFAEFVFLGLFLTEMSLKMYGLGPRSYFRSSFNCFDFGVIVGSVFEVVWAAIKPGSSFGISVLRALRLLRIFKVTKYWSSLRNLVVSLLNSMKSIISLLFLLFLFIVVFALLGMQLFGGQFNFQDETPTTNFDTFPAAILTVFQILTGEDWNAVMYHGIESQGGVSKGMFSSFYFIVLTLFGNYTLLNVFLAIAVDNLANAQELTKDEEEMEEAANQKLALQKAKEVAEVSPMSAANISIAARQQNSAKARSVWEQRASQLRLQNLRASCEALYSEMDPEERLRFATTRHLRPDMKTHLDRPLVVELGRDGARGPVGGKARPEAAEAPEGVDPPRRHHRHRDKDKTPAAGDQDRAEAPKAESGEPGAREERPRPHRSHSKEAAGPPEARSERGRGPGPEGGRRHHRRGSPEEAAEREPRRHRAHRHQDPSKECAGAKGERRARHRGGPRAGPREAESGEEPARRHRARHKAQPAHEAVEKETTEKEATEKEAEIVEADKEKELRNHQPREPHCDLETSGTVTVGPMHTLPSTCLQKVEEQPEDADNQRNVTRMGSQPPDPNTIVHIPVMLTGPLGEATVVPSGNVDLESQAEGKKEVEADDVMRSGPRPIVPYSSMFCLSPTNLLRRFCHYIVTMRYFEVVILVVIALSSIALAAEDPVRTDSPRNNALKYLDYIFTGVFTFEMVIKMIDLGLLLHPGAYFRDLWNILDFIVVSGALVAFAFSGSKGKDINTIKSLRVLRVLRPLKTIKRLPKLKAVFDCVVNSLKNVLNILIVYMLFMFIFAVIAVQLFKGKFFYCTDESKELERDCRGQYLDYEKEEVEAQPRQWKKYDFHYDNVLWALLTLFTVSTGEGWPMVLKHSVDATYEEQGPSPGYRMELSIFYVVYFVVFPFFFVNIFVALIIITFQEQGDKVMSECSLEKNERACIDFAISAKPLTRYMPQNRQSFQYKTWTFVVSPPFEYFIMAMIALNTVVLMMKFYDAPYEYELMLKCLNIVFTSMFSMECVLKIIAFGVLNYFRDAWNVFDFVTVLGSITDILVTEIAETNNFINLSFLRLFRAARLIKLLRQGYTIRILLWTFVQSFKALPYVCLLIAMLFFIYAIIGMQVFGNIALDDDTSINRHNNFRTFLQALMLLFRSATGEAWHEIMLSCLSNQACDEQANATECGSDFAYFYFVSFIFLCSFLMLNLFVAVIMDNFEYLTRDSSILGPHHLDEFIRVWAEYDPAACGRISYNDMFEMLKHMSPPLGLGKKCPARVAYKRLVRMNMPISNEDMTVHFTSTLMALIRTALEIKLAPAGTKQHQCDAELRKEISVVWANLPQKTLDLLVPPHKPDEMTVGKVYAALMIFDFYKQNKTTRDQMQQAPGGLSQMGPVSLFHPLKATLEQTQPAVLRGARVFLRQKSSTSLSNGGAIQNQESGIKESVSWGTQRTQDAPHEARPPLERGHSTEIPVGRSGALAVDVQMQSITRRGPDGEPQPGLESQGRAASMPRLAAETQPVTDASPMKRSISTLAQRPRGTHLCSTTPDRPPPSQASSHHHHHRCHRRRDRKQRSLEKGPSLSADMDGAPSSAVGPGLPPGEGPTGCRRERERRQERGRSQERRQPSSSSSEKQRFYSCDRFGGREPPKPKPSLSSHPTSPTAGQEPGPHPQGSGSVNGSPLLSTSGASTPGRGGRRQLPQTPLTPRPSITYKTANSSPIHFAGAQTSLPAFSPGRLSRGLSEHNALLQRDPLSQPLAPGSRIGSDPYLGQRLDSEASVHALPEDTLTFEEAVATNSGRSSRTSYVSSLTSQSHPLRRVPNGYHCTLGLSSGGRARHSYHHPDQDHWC
T3 sequence (Q02410 whole entry): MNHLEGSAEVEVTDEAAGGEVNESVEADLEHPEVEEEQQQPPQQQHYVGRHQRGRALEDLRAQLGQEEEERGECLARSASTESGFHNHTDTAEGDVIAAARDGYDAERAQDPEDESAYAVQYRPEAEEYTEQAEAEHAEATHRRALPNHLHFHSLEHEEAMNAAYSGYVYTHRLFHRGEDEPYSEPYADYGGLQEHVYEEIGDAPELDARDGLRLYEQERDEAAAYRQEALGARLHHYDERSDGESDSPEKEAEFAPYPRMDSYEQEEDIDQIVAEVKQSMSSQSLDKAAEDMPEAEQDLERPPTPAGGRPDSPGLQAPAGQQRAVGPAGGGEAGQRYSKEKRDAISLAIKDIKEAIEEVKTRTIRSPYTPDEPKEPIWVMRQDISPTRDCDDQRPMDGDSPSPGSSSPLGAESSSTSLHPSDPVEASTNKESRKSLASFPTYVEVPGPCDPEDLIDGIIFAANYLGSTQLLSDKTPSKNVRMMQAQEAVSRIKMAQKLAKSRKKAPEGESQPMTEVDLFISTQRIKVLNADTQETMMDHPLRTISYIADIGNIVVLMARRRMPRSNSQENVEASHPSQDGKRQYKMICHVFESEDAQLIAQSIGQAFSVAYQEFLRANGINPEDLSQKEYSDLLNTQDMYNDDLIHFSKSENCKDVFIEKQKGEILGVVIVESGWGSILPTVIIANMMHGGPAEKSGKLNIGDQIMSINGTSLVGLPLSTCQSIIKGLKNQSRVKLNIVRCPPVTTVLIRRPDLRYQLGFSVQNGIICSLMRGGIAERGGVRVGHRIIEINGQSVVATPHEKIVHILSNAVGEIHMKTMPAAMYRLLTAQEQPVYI

cells = conditions: HEK293
[6] = target: T1, Polyadenylate-binding protein 1; experiment: PABP1 MLLE–PAM2 binding inhibitor potency, dose response, biochemical, fluorescence polarization, FITC-PAM2 peptide (AID 602259); assay type: functional; conditions: read-out: IC50_Mean
[7] = target: T4, Apoptotic protease-activating factor 1 (Homo sapiens, UniProt O14727); assay type: functional
T4 sequence (O14727 whole entry): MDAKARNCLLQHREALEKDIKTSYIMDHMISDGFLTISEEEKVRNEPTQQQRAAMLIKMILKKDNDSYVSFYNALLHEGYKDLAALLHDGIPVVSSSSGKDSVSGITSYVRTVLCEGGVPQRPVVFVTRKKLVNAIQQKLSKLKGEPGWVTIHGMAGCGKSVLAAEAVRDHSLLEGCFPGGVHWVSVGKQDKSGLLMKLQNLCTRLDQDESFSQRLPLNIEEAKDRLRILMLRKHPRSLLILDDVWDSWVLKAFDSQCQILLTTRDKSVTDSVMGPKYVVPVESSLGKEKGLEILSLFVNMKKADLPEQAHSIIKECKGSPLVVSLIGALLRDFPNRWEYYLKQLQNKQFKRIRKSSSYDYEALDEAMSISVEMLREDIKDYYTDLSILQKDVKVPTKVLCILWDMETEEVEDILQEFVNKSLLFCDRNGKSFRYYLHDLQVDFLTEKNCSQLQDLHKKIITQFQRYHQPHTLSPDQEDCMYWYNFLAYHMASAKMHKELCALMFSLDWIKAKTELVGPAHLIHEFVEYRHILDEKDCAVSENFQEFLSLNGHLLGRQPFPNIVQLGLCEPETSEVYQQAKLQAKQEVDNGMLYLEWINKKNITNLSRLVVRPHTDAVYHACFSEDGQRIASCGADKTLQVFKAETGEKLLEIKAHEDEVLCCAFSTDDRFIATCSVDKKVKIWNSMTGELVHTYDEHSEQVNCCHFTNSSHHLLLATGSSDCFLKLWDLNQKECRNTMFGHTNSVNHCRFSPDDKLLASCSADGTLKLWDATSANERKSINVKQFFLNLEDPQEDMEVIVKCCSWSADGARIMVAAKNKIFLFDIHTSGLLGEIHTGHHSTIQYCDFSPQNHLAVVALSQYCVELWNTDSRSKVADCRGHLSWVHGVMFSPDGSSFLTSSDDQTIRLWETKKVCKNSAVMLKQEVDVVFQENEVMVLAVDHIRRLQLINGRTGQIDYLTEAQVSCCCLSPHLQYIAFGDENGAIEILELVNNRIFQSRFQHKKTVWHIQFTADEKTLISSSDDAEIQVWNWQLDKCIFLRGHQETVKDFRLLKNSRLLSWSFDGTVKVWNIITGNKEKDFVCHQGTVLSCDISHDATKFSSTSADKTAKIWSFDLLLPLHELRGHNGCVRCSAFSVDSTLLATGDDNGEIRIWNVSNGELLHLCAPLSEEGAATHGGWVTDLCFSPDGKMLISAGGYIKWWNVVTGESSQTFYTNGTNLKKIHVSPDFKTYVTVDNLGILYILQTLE

[8] = target: T3, Voltage-gated N-type calcium channel alpha-1B subunit/Amyloid beta A4 precursor protein-binding family A member 1; assay type: protein assay; remark: listed apart in the source
SUMO-activating enzyme [9] = target: T2, SUMO-activating enzyme; experiment: SUMOylation inhibitor hit validation, confirmation, SUMOylation inhibitor project, biochemical, AlphaScreen (AID 2018); assay type: functional
[10] = NIH/3T3 fibroblast cytotoxicity, dose response, cytotoxicity control, cell-based, plate reader, dry powder, set 2 (AID 652280); assay type: functional; conditions: NIH3T3
[11] = T. cruzi growth inhibition in host cells, dose response, cell-based, plate reader, dry powder, set 2 (AID 652275); assay type: functional
[12] = inhibitors of non-replicating M. tuberculosis, dose response, luciferase, dry powder (AID 651619); assay type: functional; conditions: Mycobacterium tuberculosis
[13] = inhibitors of non-replicating M. tuberculosis, dose response, luciferase, dry powder (AID 651620); assay type: functional; conditions: Mycobacterium tuberculosis
[14] = target: COUP transcription factor 2 (Homo sapiens, UniProt P24468); experiment: Luminescence-based cell-based high throughput dose response assay to identify inhibitors of COUP-TFII (NR2F2).; assay type: functional;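 also: HEK293 cells transiently cotransfected with COUP-TFII expression vector and reporter; luciferase reporter luminescence driven by COUP-TFII from the pX2-168 reporter plasmid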

## CCOC(=O)c1c2ccc(OCC(=O)NN)cc2n2ccccc12
[1]
  IC50: 62.8 µM (inactive)
[2]
  IC50: > 66 µM (inactive)
[3]
  IC50: > 50 µM (not active)
SUMO-activating enzyme [4]
  IC50: 1.64 µM (active)
[5]
  IC50: 40.2 µM (active)
cells
  AC50: > 52 µM (inactive)
[6]
  IC50: 33.6 µM (inactive)
[7]
  IC50: 18.5 µM (active)
[8]
  IC50: 2.73 µM (active)
SUMO-activating enzyme [9]
  IC50: 6.82 µM (active)

## CC(C)(C)[S@@+]([O-])N1Cc2cc(C(=O)NCc3ccc4c(c3)OCO4)nc(-c3cccc(-c4ccncc4)c3)c2[C@H]1CCO
[10]
  AC50: 8.56 µM (active)
[11]
  AC50: 0.341 µM (active)

## [N-]=[N+]=NCCOCCNC(=O)c1ccc(C[S+]([O-])c2nnc(-c3ccc(Cl)cc3)o2)nc1 (stereo not given)
[12]
  IC90: 16 µM (active)
[13]
  IC90: 16 µM (active)

## C=CCC1(CC=C)CCCN1C(=O)c1cc(COc2ccc(-n3cncn3)cc2)on1
[14]
  IC50: 7.88 µM (active)

From ChEMBL document CHEMBL1201862, “PubChem BioAssay data set” (2004)
